Test system: apocrine gland adenocarcinoma, metastatic to lymph node
Experiment: Oral inorganic mercury (II) treatment of a pet Labrador Retriever after surgical removal of the lump: blood data and clinical follow-up
Assay type: in vivo, dog
Parameters: MCV / MCH / MCHC / Neutrophils, absolute / Bands / Lymphocytes, absolute / Monocytes, absolute / Eosinophils, absolute / Basophils, absolute: unit not given here
Description: A 7 years old, 106 lbs male Labrador Retriever, was diagnosed with apocrine gland adenocarcinoma, metastatic to lymph node. The lump on the neck was surgically removed and biopsy analysis was performed.
The owner chose not to pursue chemo- and radiation therapies. Instead, the dog undertook a full course of inorganic mercury (II) treatment. The treatment consisted of total of 150 days including three 30-day treatment courses and two 30-day interval periods between courses. The formulation contained 1 mM mercury acetate in 20 mM sodium acetate buffer, pH 4.5, with 100 mM sucrose and 150 mM sodium chloride additives. The formulation was introduced orally to the pet three times a day 1 hour before taking food at 0.5 micromole Hg^2+/kg/day.
The blood data at Day 175 were normal (see Table 1).

SMILES: CC(=O)[O-].CC(=O)[O-].[Hg+2] [inorganic mercury (II), mercury acetate]
- health of the dog (13 months after completing the treatment): continues to be healthy
- ALT (SGPT) (Day 175): 52 U/L
- AST (SGOT) (Day 175): 29 U/L
- Albumin (Day 175): 3.9 g/dL
- Albumin/Globulin Ratio (Day 175): 1.1
- Alkaline Phosphatase (ALP) (Day 175): 94 U/L
- BUN/Creatinine Ratio (Day 175): 17
- Bands (Day 175): 0
- Basophils, absolute (Day 175): 0
- CPK (Day 175): 267 U/L
- Calcium (Day 175): 10.3 mg/dL
- Chloride (Day 175): 115 mE/L
- Cholesterol (Day 175): 322 mg/dL
- Creatinine (Day 175): 1.2 mg/dL
- Eosinophils, (%) (Day 175): 5%
- Eosinophils, absolute (Day 175): 445
- Globulin (Day 175): 3.4 g/dL
- Glucose (Day 175): 105 mg/dL
- Hematocrit (Day 175): 53.7%
- Hemoglobin (Day 175): 17.7 g/dL
- Lymphocytes, (%) (Day 175): 31%
- Lymphocytes, absolute (Day 175): 2759
- MCH (Day 175): 21.9
- MCHC (Day 175): 33.0
- MCV (Day 175): 66
- Monocytes, (%) (Day 175): 4%
- Monocytes, absolute (Day 175): 356
- Neutrophils, (%) (Day 175): 60%
- Neutrophils, absolute (Day 175): 5340
- Phosphorus (Day 175): 4.6 mg/dL
- Platelet count (Day 175): 294 10^3/microl
- Potassium (Day 175): 5.1 mE/L
- RBC (Day 175): 8.1 10^6/microl
- Sodium (Day 175): 151 mE/L
- Total Billirubin (Day 175): 0.2 mg/dL
- Total Protein (Day 175): 7.3 g/dL
- Urea Nitrogen (Day 175): 20 mg/dL
- WBC (Day 175): 8.9 10^3/microl
- blood data (Day 175): normal
- metastases on chest x-ray (Day 356, owner's notes): no metastases
- metastasis or new mass growth in abdominal, lymph nodes or chest (post treatment evaluation by oncologist and veterinarian, X-rays and ultrasound): no evidence of metastasis or new mass growth

— patent publication US20070154567A1, “Use of mercury to treat cancer” (priority 2006, published 2007)
